Assay results reported in PubChem BioAssay AID330 (DTP/NCI, 2004).
Values joined by “and” are separate entries in the source; they are usually repeats but may differ in a detail not shown here. Equal entries are not always repeated. Toxic doses and inconclusive results are not listed.

Tested on: P388 leukemia ip, CD2F1 mice, survival T/C
Assay: NCI In Vivo Anticancer Drug Screen. Data for tumor model P388 Leukemia (intraperitoneal) in CD2F1 (CDF1) mice
Details: endpoint: median survival time, higher = longer survival
In short: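 Mice carrying the transplanted tumor received test compound or vehicle. Survival was recorded in each group, and the value is the treated-group measurement divided by that of the vehicle-treated control group.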

[1] = dose: 50.0 mg/kg/injection, schedule: Q01DX005 (ip), vehicle: saline with Tween-80
[2] = dose: 100.0 mg/kg/injection, schedule: Q01DX005 (ip), vehicle: saline with Tween-80
[3] = dose: 200.0 mg/kg/injection, schedule: Q01DX005 (ip), vehicle: saline with Tween-80
[4] = dose: 50.0 mg/kg/injection, schedule: Q01DX009 (ip), vehicle: saline
[5] = dose: 200.0 mg/kg/injection, schedule: Q01DX009 (ip), vehicle: saline
[6] = dose: 25.0 mg/kg/injection, schedule: Q01DX005 (ip), vehicle: Klucel (hydroxypropylcellulose) (HPC)
[7] = dose: 50.0 mg/kg/injection, schedule: Q01DX005 (ip), vehicle: Klucel (hydroxypropylcellulose) (HPC)
[8] = dose: 100.0 mg/kg/injection, schedule: Q01DX005 (ip), vehicle: Klucel (hydroxypropylcellulose) (HPC)
[9] = dose: 200.0 mg/kg/injection, schedule: Q01DX005 (ip), vehicle: Klucel (hydroxypropylcellulose) (HPC)
[10] = dose: 60.0 mg/kg/injection, schedule: Q01DX005 (ip), vehicle: saline with Tween-80
[11] = dose: 120.0 mg/kg/injection, schedule: Q01DX005 (ip), vehicle: saline with Tween-80
[12] = dose: 240.0 mg/kg/injection, schedule: Q01DX005 (ip), vehicle: saline with Tween-80
[13] = dose: 6.25 mg/kg/injection, schedule: Q01DX009 (ip), vehicle: saline
[14] = dose: 12.5 mg/kg/injection, schedule: Q01DX009 (ip), vehicle: saline

Cc1nnc(N)c(C#N)c1C
T/C (dose: 50.0 mg/kg/injection, schedule: Q01DX005 (ip), vehicle: saline): 95 % of control | T/C (dose: 100.0 mg/kg/injection, schedule: Q01DX005 (ip), vehicle: saline): 104 % of control | T/C (dose: 200.0 mg/kg/injection, schedule: Q01DX005 (ip), vehicle: saline): 93 % of control

CC1(C)CC(=O)C(=[N+]=[N-])C(=O)C1
T/C (dose: 7.5 mg/kg/injection, schedule: Q01DX005 (ip), vehicle: saline with Tween-80): 105 % of control | T/C (dose: 15.0 mg/kg/injection, schedule: Q01DX005 (ip), vehicle: saline with Tween-80): 105 % of control | T/C (dose: 30.0 mg/kg/injection, schedule: Q01DX005 (ip), vehicle: saline with Tween-80): 102 % of control

CCOC(=O)CCN(CC1CC=CCC1)c1cc(O)c2c(c1O)C(=O)c1ccccc1C2=O (stereo unspecified)
T/C (dose: 25.0 mg/kg/injection, schedule: Q01DX005 (ip), vehicle: saline with Tween-80): 91 % of control | T/C [1]: 92 % of control | T/C [2]: 90 % of control | T/C [3]: 92 % of control

O=C(NC(C(=O)O)C1CC(Cl)=NO1)OCC1c2ccccc2-c2ccccc21 (stereo unspecified)
T/C (dose: 3.1 mg/kg/injection, schedule: Q04DX003 (ip), vehicle: other): 104 % of control | T/C (dose: 6.2 mg/kg/injection, schedule: Q04DX003 (ip), vehicle: other): 116 % of control | T/C (dose: 12.5 mg/kg/injection, schedule: Q04DX003 (ip), vehicle: other): 120 % of control | T/C (dose: 25.0 mg/kg/injection, schedule: Q04DX003 (ip), vehicle: other): 120 % of control and 123 % of control | T/C (dose: 100.0 mg/kg/injection, schedule: Q04DX003 (ip), vehicle: other): 157 % of control | T/C (dose: 200.0 mg/kg/injection, schedule: Q04DX003 (ip), vehicle: other): 150 % of control

CCCCCCCCCCCCCCCC(=O)OCC(CO)OC(=O)CCCCCCCCCCCCCCC (stereo unspecified)
T/C (dose: 50.0 mg/kg/injection, schedule: Q01DX009 (ip), vehicle: Klucel (hydroxypropylcellulose) (HPC)): 91 % of control | T/C (dose: 100.0 mg/kg/injection, schedule: Q01DX009 (ip), vehicle: Klucel (hydroxypropylcellulose) (HPC)): 87 % of control | T/C (dose: 200.0 mg/kg/injection, schedule: Q01DX009 (ip), vehicle: Klucel (hydroxypropylcellulose) (HPC)): 89 % of control

COc1ccc(N=Cc2ccc(C=Nc3ccc(OC)cc3OC)cc2)c(OC)c1
T/C [4]: 93 % of control | T/C (dose: 100.0 mg/kg/injection, schedule: Q01DX009 (ip), vehicle: saline): 96 % of control | T/C [5]: 91 % of control

COc1ccc(C(O)Cc2cc(OC)c(OC)c(OC)c2)cc1O (stereo unspecified)
T/C (dose: 31.25 mg/kg/injection, schedule: Q01DX009 (ip), vehicle: saline + Tween-80 + alcohol): 105 % of control | T/C (dose: 62.5 mg/kg/injection, schedule: Q01DX009 (ip), vehicle: saline + Tween-80 + alcohol): 98 % of control | T/C (dose: 125.0 mg/kg/injection, schedule: Q01DX009 (ip), vehicle: saline + Tween-80 + alcohol): 89 % of control | T/C (dose: 250.0 mg/kg/injection, schedule: Q01DX009 (ip), vehicle: saline + Tween-80 + alcohol): 91 % of control

O=C1C[C@]2(CC3CO3)C[C@@H](C=CC23OCCO3)O1 (stereo partly specified)
T/C (dose: 1.5 mg/kg/injection, schedule: Q01DX005 (ip), vehicle: acid diluted with saline): 99 % of control | T/C (dose: 3.0 mg/kg/injection, schedule: Q01DX005 (ip), vehicle: acid diluted with saline): 102 % of control | T/C (dose: 6.0 mg/kg/injection, schedule: Q01DX005 (ip), vehicle: acid diluted with saline): 102 % of control | T/C (dose: 12.0 mg/kg/injection, schedule: Q01DX005 (ip), vehicle: acid diluted with saline): 107 % of control

COc1ccc2c(c1)C1CCN(C)CC1OC2=O (stereo unspecified)
T/C (dose: 12.5 mg/kg/injection, schedule: Q01DX009 (ip), vehicle: saline with Tween-80): 92 % of control | T/C (dose: 25.0 mg/kg/injection, schedule: Q01DX009 (ip), vehicle: saline with Tween-80): 98 % of control | T/C (dose: 50.0 mg/kg/injection, schedule: Q01DX009 (ip), vehicle: saline with Tween-80): 100 % of control and 104 % of control

O=c1c(N(CCO)CCO)cn(Cc2ccccc2)c(=O)n1Cc1ccccc1
T/C [6]: 100 % of control | T/C [7]: 102 % of control | T/C [8]: 103 % of control | T/C [9]: 97 % of control

Cc1ccc(C2=C3CCCCC3c3cc(C)ccc32)cc1 (stereo unspecified)
T/C [6]: 91 % of control | T/C [7]: 97 % of control | T/C [8]: 90 % of control | T/C [9]: 90 % of control

Cc1cc2c(cc1C)NC1=C(N2)OC(c2ccc(Cl)cc2)C1=O (stereo unspecified)
T/C [10]: 92 % of control | T/C [11]: 89 % of control | T/C [12]: 92 % of control

CN(C)CC(CN(C)C)C(=O)/C=C/c1ccc(OCc2ccccc2)cc1
T/C (dose: 6.25 mg/kg/injection, schedule: Q01DX005 (ip), vehicle: saline): 104 % of control | T/C (dose: 12.5 mg/kg/injection, schedule: Q01DX005 (ip), vehicle: saline): 97 % of control

CN(C=O)c1ccc(Cl)cc1
T/C (dose: 100.0 mg/kg/injection, schedule: Q04DX002 (ip), vehicle: saline): 100 % of control | T/C (dose: 200.0 mg/kg/injection, schedule: Q04DX002 (ip), vehicle: saline): 97 % of control | T/C (dose: 400.0 mg/kg/injection, schedule: Q04DX002 (ip), vehicle: saline): 100 % of control

Cc1nc2ncn(-c3ccccc3)c2c(=O)n1Cc1ccco1
T/C [7]: 103 % of control | T/C [8]: 103 % of control | T/C [9]: 95 % of control

COc1ccc2c3c([nH]c2c1N)C(C)NCC3 (stereo unspecified)
T/C (dose: 12.5 mg/kg/injection, schedule: Q01DX005 (ip), vehicle: Klucel (hydroxypropylcellulose) (HPC)): 102 % of control | T/C [6]: 96 % of control | T/C [7]: 104 % of control | T/C [8]: 104 % of control

Cc1coc2c1[C@H]1OC(=O)C3=CCC[C@H](C2)[C@@]31C
T/C (dose: 7.5 mg/kg/injection, schedule: Q01DX009 (ip), vehicle: saline with Tween-80): 100 % of control | T/C (dose: 15.0 mg/kg/injection, schedule: Q01DX009 (ip), vehicle: saline with Tween-80): 100 % of control | T/C (dose: 30.0 mg/kg/injection, schedule: Q01DX009 (ip), vehicle: saline with Tween-80): 101 % of control | T/C (dose: 60.0 mg/kg/injection, schedule: Q01DX009 (ip), vehicle: saline with Tween-80): 98 % of control

C/C(=N\N=C(\N)N1CCOCC1)c1ccc2c(c1)Cc1c(/C(C)=N/N=C(\N)N3CCOCC3)cccc1-2
T/C (dose: 12.5 mg/kg/injection, schedule: Q04DX002 (ip), vehicle: saline with Tween-80): 102 % of control | T/C (dose: 25.0 mg/kg/injection, schedule: Q04DX002 (ip), vehicle: saline with Tween-80): 97 % of control | T/C (dose: 50.0 mg/kg/injection, schedule: Q04DX002 (ip), vehicle: saline with Tween-80): 103 % of control

C[N+]1(CCC(=O)c2ccccc2)CCOCC1
T/C [13]: 100 % of control | T/C [14]: 103 % of control | T/C (dose: 25.0 mg/kg/injection, schedule: Q01DX009 (ip), vehicle: saline): 100 % of control | T/C [4]: 100 % of control and 97 % of control | T/C [5]: 96 % of control

CCCCNC(=O)Nc1cccc2c(O)cccc12
T/C (dose: 6.25 mg/kg/injection, schedule: Q01DX009 (ip), vehicle: DMSO): 94 % of control | T/C (dose: 12.5 mg/kg/injection, schedule: Q01DX009 (ip), vehicle: DMSO): 87 % of control | T/C (dose: 25.0 mg/kg/injection, schedule: Q01DX009 (ip), vehicle: DMSO): 87 % of control

O=[N+]([O-])c1cccc(C2=NON(c3ccccn3)C3C=CC=CN23)c1 (stereo unspecified)
T/C [10]: 94 % of control | T/C [11]: 90 % of control | T/C [12]: 92 % of control

Cn1ccnc1Sc1ccccn1
T/C (dose: 60.0 mg/kg/injection, schedule: Q01DX005 (ip), vehicle: saline): 104 % of control | T/C (dose: 120.0 mg/kg/injection, schedule: Q01DX005 (ip), vehicle: saline): 107 % of control | T/C (dose: 240.0 mg/kg/injection, schedule: Q01DX005 (ip), vehicle: saline): 89 % of control

NC(=O)N=Nc1cccc(Cl)c1
T/C [1]: 98 % of control | T/C [2]: 104 % of control | T/C [3]: 104 % of control

CCCC[N+]1(CC)CCCCC1
T/C (dose: 3.12 mg/kg/injection, schedule: Q01DX009 (ip), vehicle: saline): 97 % of control | T/C [13]: 113 % of control | T/C [14]: 106 % of control

C1CCN(CCC[Si]23OCCN(CCO2)CCO3)C1
T/C [1]: 108 % of control | T/C [2]: 108 % of control | T/C [3]: 109 % of control
